Values of other authors in patent US20260272891A1, “TREATMENT OF AUTOIMMUNE DISEASES AND CANCER WITH PROTEASE INHIBITORS” (Lundquist Institute for Biomedical Innovation at …, priority 2023, published 2026).

Test system: all variants of concern, including Omicron and its variants
Conditions: cited from earlier work

Q: Which antiviral activity does the source give for CC(C)(C)[C@H](NC(=O)C(F)(F)F)C(=O)N1C[C@H]2[C@@H]([C@H]1C(=O)N[C@H](C#N)C[C@@H]1CCNC1=O)C2(C)C [NMV, nirmatrelvir] here?
A: The antiviral activity was “antiviral activity against all variants of concern”.
